Reference: patent publication US7425579B2, “Methods for inhibiting activity of polyamine transporters” (Universite Laval, priority 1998, dated 2008)

How the values were obtained:
T-47D cells = test: Reversal of DFMO-induced cytostasis by exogenous spermidine in T-47D cells; format: cell-based, human; conditions: 50 μM BNSD-X (167-fold excess over 0.3 μM spermidine); 2 mM DFMO
Method: FIGS. 6A, 6B, 6C and 6D are graph showing that antagonism of DFMO-induced cytostasis by exogenous spermidine depends on the polyamine and linker structure of the compounds used in a method according to a preferred embodiment of the invention. In particular, T-47D cells were grown for 8-9 d with the indicated concentrations of spermidine in medium containing 1 mM aminoguanidine, in the presence of DFMO (●), transport inhibitor (□), DFMO plus transport inhibitor (▪), or in the absence of either agent (∘), and total DNA content per culture was then determined. Panels A, B, C, and D describe the effect of BNSD-X, BSD-X, BNSD-3 and BSD-3, respectively. Data are presented as the mean±SD for triplicate cultures from one out of at least two identical experiments;
FIGS. 8A and 8B are graphs representing the time course of the effect of a compound used in a method according to a preferred embodiment of the invention on rescue of DFMO-induced cytostasis by exogenous spermidine. In particular, at time zero, T-47D (panel A) or CHO-K1 (panel B) were seeded at 1×10^4 or 5×10^3 cells/well, respectively, in medium containing 1 mM aminoguanidine, plus either 0.3 μM spermidine (Spd, ●), 2 mM DFMO (□), Spd+DFMO (▪), 50 μM (A) or 100 μM (B) BNSD-X (Δ), BNSD-X+Spd (▴), BNSD-X+DFMO (□), BNSD-X+Spd+DFMO (▾), or vehicle only (∘). At the indicated time, total DNA content/well was determined. Data are presented as the mean±SD for triplicate cultures from one representative experiment;
(§1) To determine the ability of polyamine transport antagonists to potentiate DFMO-induced inhibition of cell proliferation in the presence of exogenous polyamines, cells were grown for the indicated period in growth medium supplemented with 1 mM aminoguanidine, and either DFMO (1 to 5 mM), the indicated transport inhibitor (50 or 100 μM), or the combination thereof, as well as increasing concentrations of spermidine (0.1 to 300 μM). Fresh medium was added every other day, and cell mass was determined at various time points during the period of exponential growth, or at the end of the experimental period. For the latter experiments, the FBS supplement was replaced with dextran-coated charcoal-treated FBS (5%, v/v) plus 0.5 μg/ml insulin in the case of T-47D, ZR-75-1 and MCF-7 cells (U.S. Pat. No. 6,083,496).

[1] = system: polyamine transport system; test: Time course of [3H]spermidine accumulation in T-47D cells; format: cell-based, human
Method: (§2) In particular, exponentially growing T-47D (A) or ZR-75-1 cells (B and C) were transferred to serum-free medium containing 5 μM [^3H]spermidine, and either 200 μM cycloheximide (CHX) (●), 100 μM BNSD-X (□), CHX plus BNSD-X (▪), or vehicle only (∘). Cells were incubated for the time intervals indicated prior to harvesting for detrmination of total intracellular radioactivity. ZR-75-1 cells were either pre-incubated for 48 h in the absence (panel B) or presence of 1 mM DFMO (panel C) prior to the experiment shown; DFMO was also included during the labeling period in the appropriate group. Data are presented as the mean±SD for triplicate cultures from one representative experiment;
The effect of BNSD-X on the time course of [^3H]spermidine accumulation was determined in ZR-75-1 and T-47D cells pre-incubated in the presence or absence of DFMO before addition of radioactive substrate and the transport inhibitor. Subgroups of cell cultures were also treated with cycloheximide in order to prevent the polyamine-dependent induction of ODC antizyme, which rapidly down-regulates polyamine transport activity through an unknown mechanism (Lessard et al. (1995) J. Biol. Chem. 270, 1685-1694; Coffino et al. (2001) Nat Rev Mol Cell Biol. 2:188-194). As expected, [^3H]spermidine accumulation reached a plateau after approximately 2 h in both […], but increased in an approximately linear fashion for the first 6-8 h in the presence of cycloheximide, consistent with relief from feedback repression of polyamine transport as a result of inhibition of antizyme synthesis. At a BNSD-X:spermidine ratio of 20:1, the triamine dimer decreased net [^3H]spermidine uptake in T-47D cells after 8 h by 92% and 80% in the presence or absence of cycloheximide, respectively (FIG. 7A), whereas it inhibited spermidine accumulation by 90 and 65%, respectively, under the same conditions in ZR-75-1 cells (FIG. 7B). […]

[2] = system: CHO-K1, Jurkat, L1210, MDA-MB-231, ZR-75-1 and MCF-7 cells; test: Reversal of DFMO-induced cytostasis by exogenous spermidine in a variety of mammalian cell lines; format: cell-based; conditions: 50-100 μM BNSD-X
Method: FIGS. 5A, 5B, 5C, 5D, 5E and 5F are graphs representing that a compound used in a method according to a preferred embodiment antagonizes rescue of DFMO-induced cytostasis by exogenous spermidine. In particular, CHO-K1 (A), Jurkat (B), L1210 (C), MDA-MB-231 (D), ZR-75-1 (E) and MCF-7 cells (F) were grown to near confluency or saturation (for 4 to 11 d according to the cell line considered) with the indicated concentrations of spermidine in medium containing 1 mM aminoguanidine, in the presence of DFMO (●), BNSD-X (□), DFMO plus BNSD-X (▪), or in the absence of either agent (∘), and total DNA content per culture was then determined. The optimal concentration of either DFMO (1 to 5 mM) or BNSD-X (50 or 100 μM) was used for the each cell line as determined in pilot experiments. Data are presented as the mean±SD for triplicate cultures from one out of at least three identical experiments for each cell line;
as §1

[3] = system: polyamine transport system; test: Time course of [3H]spermidine accumulation in ZR-75-1 cells; format: cell-based, human; conditions: after 8 h
Method: as §2
The effect of BNSD-X on the time course of [^3H]spermidine accumulation was determined in ZR-75-1 and T-47D cells pre-incubated in the presence or absence of DFMO before addition of radioactive substrate and the transport inhibitor. Subgroups of cell cultures were also treated with cycloheximide in order to prevent the polyamine-dependent induction of ODC antizyme, which rapidly down-regulates polyamine transport activity through an unknown mechanism (Lessard et al. (1995) J. Biol. Chem. 270, 1685-1694; Coffino et al. (2001) Nat Rev Mol Cell Biol. 2:188-194). […]

NCCCN(CCCN)Cc1ccc(CN(CCCN)CCCN)cc1 [28a, N,N,N′,N′-tetrakis-(3-aminopropyl)-p-diaminoxylene]
effect on growth inhibition by DFMO, T-47D (T-47D cells): did not markedly increase the extent of growth inhibition observed with DFMO alone
residual rate of spermidine influx, of the maximal rate of spermidine accumulation ([1]; 20-fold excess of BNSD-X, T-47D and ZR-75-1): 8-10%
decrease of net [3H]spermidine uptake, without cycloheximide ([1]; T-47D, after 8 h, BNSD-X:spermidine 20:1): 80%
decrease of net [3H]spermidine uptake, with cycloheximide ([1]; T-47D, after 8 h, BNSD-X:spermidine 20:1 (100 μM:5 μM), 200 μM cycloheximide): 92%
increase of the spermidine concentration required to fully restore cell proliferation upon treatment with DFMO ([2]; DFMO 1 to 5 mM): 10 to 100 fold
effect of the inhibitor alone on cell proliferation ([2]; except L1210 and, to a lesser degree, MCF-7 cells): little or no effect
inhibition of spermidine accumulation, without cycloheximide ([3]; BNSD-X:spermidine 20:1): 65%
inhibition of spermidine accumulation, with cycloheximide ([3]; BNSD-X:spermidine 20:1, 200 μM cycloheximide): 90%
